Data reported in patent publication US20100249064A1, “METHODS AND COMPOSITIONS FOR TREATING DISEASES AND CONDITIONS INVOLVING HIGHER MOLECULAR WEIGHT HYALURONAN” (University of Chicago, priority 2007, published 2010).

Assays:
HPMVEC = test: EC migration (transwell); assay type: cell-based, human; details: 100 nM HA with or without 100 nM VEGF, or siRNA 48 hours then VEGF; 18 hours
Experimental: Determination of the role of HMW-HA/CD44 interactions in regulating hyaluronidase activity and angiogenesis in vitro. Human pulmonary microvascular EC (HPMVEC) (Cambrex), grown in EBM-2 complete medium (Cambrex) at 37° C. in a humidified atmosphere of 5% CO2, 95% air, with passages 6-10 used for experimentation was treated with or without 100 nM HMW-HA and/or 100 nM VEGF in the presence or absence of CD44 isoform-specific blocking antibodies (EMD Biosciences), siRNA (scramble, CD44, Hyal-1, Hyal-2, Hyal-3 or Hyal-4) and the potent hyaluronidase inhibitor, L-ascorbic acid 6-hexadecanoate (Botzki et al., 2004) (Sigma). […] Treated EC will either be analyzed for protein expression, hyaluronidase activity or VEGF-induced proliferation, migration or tube formation. […] Cells from the upper and lower chamber were quantitated using the CellTiter96™ MTS assay (Promega, San Luis Obispo, Calif.) and read at 492 nm. % migration was defined as the # of cells in the lower chamber […] the number of cells in both the upper and lower chamber. Each assay was set up in triplicate, repeated at least five times and analyzed statistically by Student's t test (with statistical significance set at P<0.05). […] The in vitro cell proliferation assay was analyzed by measuring increases in cell number using the CellTiter96™ MTS assay (Promega, San Luis Obispo, Calif.) and read at 492 nm. […]

[1] = test system: CD44s, CD44v10, S1P1 and S1P3 receptors in lipid rafts; test: CD44 isoform / S1P receptor recruitment and association in lipid raft (CEM) fractions; assay type: cell-based, human; details: for CD44 isoform association with S1P receptors in lipid rafts: 100 nM HA, immunoprecipitation from lipid raft fractions
Experimental: Lipid Raft Isolation—Caveolin-enriched microdomain known as lipid rafts were isolated from human lung EC as described (Singleton and Bourguignon, 2004; Singleton et al., 2005). Materials insoluble in Triton X-100-insoluble were mixed with 0.6 ml of cold 60% Optiprep™ and then overlaid with 0.6 ml of 40%-20% Optiprep™. The resulting gradients were then centrifuged (35,000 rpm) in SW60 rotor for 12 h at 4° C. and different fractions were collected and analyzed. In some cases, different fractions were analyzed for total cholesterol content using a cholesterol assay kit (Amplex Red™, Invitrogen (Molecular Probes), Eugene, Oreg.).
Immunoprecipitation and Immunoblotting—Cellular materials associated within the 20% Optiprep™ fractions (lipid raft fraction) were incubated with IP buffer A (50 mM HEPES (pH 7.5), 150 mM NaCl, 20 mM MgCl2, 1% Nonidet P-40 (NP-40), 0.4 mM Na3VO4, 40 mM NaF, 50 μM okadaic acid, 0.2 mM phenylmethylsulfonyl fluoride, 1:250 dilution of Calbiochem protease inhibitor mixture 3) or IP buffer B (50 mM HEPES (pH 7.5), 150 mM NaCl, 20 mM MgCl2, 1% Triton X-100, 0.1% SDS, 0.4 mM Na3VO4, 40 mM NaF, 50 μM okadaic acid, 0.2 mM phenylmethylsulfonyl fluoride, 1:250 dilution of Calbiochem protease inhibitor mixture 3) as indicated. The samples were then immunoprecipitated with anti-S1P1 receptor or anti-S1P3 receptor IgG followed by SDS-PAGE in 4-15% polyacrylamide gels, and transfer onto Immobilon™ membranes. Development occurred using specific primary and secondary antibodies. Enhanced chemiluminescence (Amersham Biosciences) for visualization of immunoreactive bands then took place.
Determination of Complex Formation between S1P1 Receptor/CD44s and S1P3 Receptor/CD44v10—EC monolayers were serum-starved for one hour, then treated with High or Low MW HA (100 nM) (5-30 min.) and solubilized in IP buffer A (see above). Following immunoprecipitation with either rabbit anti-S1P1 receptor or mouse anti-S1P3 receptor antibody, the samples were subjected to SDS-PAGE in 4-15% polyacrylamide gels and transfer onto Immobilon™ membranes (Millipore Corp., Bedford, Mass.). Nonspecific sites were then blocked with 5% bovine serum albumin, and the blots were then incubated with either rat anti-CD44 (IM-7, common domain) antibody, rabbit anti-S1P1 antibody or mouse anti-S1P3 antibody followed by incubation with horseradish peroxidase (HRP)-labeled goat anti-rabbit, goat anti-mouse or goat anti-rat IgG. Enhanced chemiluminescence (Amersham Biosciences) for visualization of immunoreactive bands then took place.

Row | Substance | EC migration (% Migration) (HPMVEC) | recruitment of CD44s to the lipid raft fraction ([1]; 100 nM HA, 5, 15 or 30 min) | CD44 isoform association with S1P receptors in lipid rafts [1] | recruitment of CD44v10 to the lipid raft fraction ([1]; 100 nM HA, 5, 15 or 30 min)
1 | hyaluronan [HMW-HA] | inhibited VEGF-induced hyaluronidase expression, EC proliferation (A) and migration (B) | rapidly (5 min.) recruit CD44s to the lipid raft fraction | induced CD44s association in lipid rafts with S1P1 | 
2 | hyaluronan [LMW-HA, reference compound] | promotes EC proliferation and migration | rapidly (5 min.) recruit CD44s to the lipid raft fraction | induced an initial CD44s association with S1P1 which was followed by CD44v10 association with S1P3 receptor in lipid raft fractions | robust but delayed recruitment of CD44v10 (after 15 min.)
